Measured values as given in patent US9273058B2 (BRISTOL-MYERS SQUIBB COMPANY, priority 2013, dated 2016).
One block for each molecule: values may come before it.

Assays:
CK1δ = CK1δ (Homo sapiens, UniProt P48730); experiment: CK1δ kinase assay (Caliper LabChip electrophoretic separation of fluoresceinated peptide substrate and product); assay type: biochemical; conditions: 200 pM CK1δ, 50 μM ATP, 1.5 μM peptide, 22 hours at room temperature; read-out: CK1δ IC50 range
Summary of the method: (§1)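 Kinase reactions ran 22 h at room temperature, were stopped with EDTA, and phosphorylated product was separated electrophoretically from unphosphorylated fluoresceinated peptide. Compounds were tested at eleven concentrations from 10 mM DMSO stocks. IC50 by non-linear regression.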

CK1ε = CK1ε (Homo sapiens, UniProt P49674); experiment: CK1ε kinase assay (Caliper LabChip electrophoretic separation of fluoresceinated peptide substrate and product); assay type: biochemical; conditions: 200 pM CK1ε, 50 μM ATP, 1.5 μM peptide, 22 hours at room temperature; read-out: CK1ε IC50 range
Summary of the method: as §1

CK1ε, sequence (P49674 whole entry): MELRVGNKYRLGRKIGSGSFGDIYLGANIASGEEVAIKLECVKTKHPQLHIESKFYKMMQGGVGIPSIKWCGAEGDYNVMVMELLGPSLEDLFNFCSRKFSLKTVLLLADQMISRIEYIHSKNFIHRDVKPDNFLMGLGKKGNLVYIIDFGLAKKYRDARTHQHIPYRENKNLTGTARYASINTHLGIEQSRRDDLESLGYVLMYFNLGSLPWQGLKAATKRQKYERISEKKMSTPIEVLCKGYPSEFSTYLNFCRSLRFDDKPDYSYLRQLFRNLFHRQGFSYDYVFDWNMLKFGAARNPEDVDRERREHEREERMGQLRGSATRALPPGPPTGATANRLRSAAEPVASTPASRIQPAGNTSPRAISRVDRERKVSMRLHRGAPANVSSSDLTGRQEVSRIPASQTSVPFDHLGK
CK1δ, sequence (P48730 whole entry): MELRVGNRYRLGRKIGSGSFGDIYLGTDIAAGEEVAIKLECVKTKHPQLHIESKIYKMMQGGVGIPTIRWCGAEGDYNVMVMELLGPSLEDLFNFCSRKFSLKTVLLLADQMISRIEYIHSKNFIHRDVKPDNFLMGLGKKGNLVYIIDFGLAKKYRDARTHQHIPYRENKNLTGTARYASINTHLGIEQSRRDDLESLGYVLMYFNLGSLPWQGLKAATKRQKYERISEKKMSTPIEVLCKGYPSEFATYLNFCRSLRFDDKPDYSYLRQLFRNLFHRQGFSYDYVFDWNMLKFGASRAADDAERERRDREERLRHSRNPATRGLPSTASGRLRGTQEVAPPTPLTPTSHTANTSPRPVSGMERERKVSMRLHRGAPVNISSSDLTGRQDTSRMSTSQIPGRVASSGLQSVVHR

Structure (SMILES): CC12CC3(C)CC(C)(C1)CC(NC(=O)N1CCn4nc(-c5ccc(F)c(Cl)c5)c(C(N)=O)c4C1)(C2)C3 [Compound A65, 2-(3-Chloro-4-fluorophenyl)-N^5-((3s,5s,7s)-3,5,7-trimethyladamantan-1-yl)-6,7-dihydropyrazolo[1,5-a]pyrazine-3,5(4H)-dicarboxamide]
IC50 (CK1δ): 0.01 to 10 nM
IC50 (CK1ε): 0.01 to 10 nM

Structure (SMILES): CC1(C)C2CCC1(NC(=O)N1CCn3nc(-c4ccc(F)c(Cl)c4)c(C(N)=O)c3C1)CC2O (stereo not shown) [Compound A66, 2-(3-Chloro-4-fluorophenyl)-N^5-(3-hydroxy-7,7-dimethylbicyclo[2.2.1]heptan-1-yl)-6,7-dihydropyrazolo[1,5-a]pyrazine-3,5(4H)-dicarboxamide]
IC50 (CK1δ): 0.01 to 10 nM
IC50 (CK1ε): 0.01 to 10 nM

Structure (SMILES): CC1(C)C2CCC1(NC(=O)N1CCn3nc(-c4ccc(F)c(Cl)c4)c(C(N)=O)c3C1)CC2F (stereo not shown) [Compound A67, 2-(3-Chloro-4-fluorophenyl)-N^5-(3-fluoro-7,7-dimethylbicyclo[2.2.1]heptan-1-yl)-6,7-dihydropyrazolo[1,5-a]pyrazine-3,5(4H)-dicarboxamide]
IC50 (CK1δ): 0.01 to 10 nM
IC50 (CK1ε): 0.01 to 10 nM

Structure (SMILES): CC12CC3CC(C)(C1)CC(NC(=O)N1CCn4nc(-c5ccc(F)c(Cl)c5)c(C(N)=O)c4C1)(C3)C2 [Compound A68, 2-(3-Chloro-4-fluorophenyl)-N^5-((1r,3R,5S,7r)-3,5-dimethyladamantan-1-yl)-6,7-dihydropyrazolo[1,5-a]pyrazine-3,5(4H)-dicarboxamide]
IC50 (CK1δ): 0.01 to 10 nM
IC50 (CK1ε): 0.01 to 10 nM

Structure (SMILES): C[C@@]12C[C@H]3C[C@@](Cl)(C1)C[C@](NC(=O)N1CCn4nc(-c5ccc(F)c(Cl)c5)c(C(N)=O)c4C1)(C3)C2 [Compound A69, 2-(3-Chloro-4-fluorophenyl)-N^5-((1S,3R,5S,7R)-3-chloro-5-methyladamantan-1-yl)-6,7-dihydropyrazolo[1,5-a]pyrazine-3,5(4H)-dicarboxamide]
IC50 (CK1δ): 0.01 to 10 nM
IC50 (CK1ε): 0.01 to 10 nM

Structure (SMILES): COC12CCC(NC(=O)N3CCn4nc(-c5cccc(Cl)c5)c(C(N)=O)c4C3)(CC1)C(=O)C2 [Compound A76, 2-(3-Chlorophenyl)-N^5-(4-methoxy-2-oxobicyclo[2.2.2]octan-1-yl)-6,7-dihydropyrazolo[1,5-a]pyrazine-3,5(4H)-dicarboxamide]
IC50 (CK1δ): 0.01 to 10 nM
IC50 (CK1ε): 0.01 to 10 nM

Structure (SMILES): NC(=O)c1c(-c2cccc(Cl)c2)nn2c1CN(C(=O)NC13CCC(C(F)F)(CC1)CC3)CC2 [Compound A77, 2-(3-Chlorophenyl)-N^5-(4-(difluoromethyl)bicyclo[2.2.2]octan-1-yl)-6,7-dihydropyrazolo[1,5-a]pyrazine-3,5(4H)-dicarboxamide]
IC50 (CK1δ): 0.01 to 10 nM
IC50 (CK1ε): 0.01 to 10 nM

Structure (SMILES): NC(=O)c1c(-c2cccc(Cl)c2)nn2c1CN(C(=O)NC13CCC(CF)(CC1)CC3)CC2 [Compound A78, 2-(3-Chlorophenyl)-N^5-(4-(fluoromethyl)bicyclo[2.2.2]octan-1-yl)-6,7-dihydropyrazolo[1,5-a]pyrazine-3,5(4H)-dicarboxamide]
IC50 (CK1δ): 0.01 to 10 nM
IC50 (CK1ε): 0.01 to 10 nM

Structure (SMILES): COC12CCC(NC(=O)N3CCn4nc(-c5cccc(Cl)c5)c(C(N)=O)c4C3)(CC1)C(F)(F)C2 [Compound A81, 2-(3-Chlorophenyl)-N^5-(2,2-difluoro-4-methoxybicyclo[2.2.2]octan-1-yl)-6,7-dihydropyrazolo[1,5-a]pyrazine-3,5(4H)-dicarboxamide]
IC50 (CK1δ): 0.01 to 10 nM
IC50 (CK1ε): 0.01 to 10 nM

Structure (SMILES): NC(=O)c1c(-c2cccc(Cl)c2)nn2c1CN(C(=O)NC13CCC(c4ccccc4)(CC1)CC3)CC2 [Compound A83, 2-(3-Chlorophenyl)-N^5-(4-phenylbicyclo[2.2.2]octan-1-yl)-6,7-dihydropyrazolo[1,5-a]pyrazine-3,5(4H)-dicarboxamide]
IC50 (CK1δ): 0.01 to 10 nM
IC50 (CK1ε): 0.01 to 10 nM

Structure (SMILES): CC12CC3(C)CC(C)(C1)CC(NC(=O)N1CCn4nc(-c5cccc(Cl)c5)c(C(N)=O)c4C1)(C2)C3 [Compound A85, 2-(3-Chlorophenyl)-N^5-((3s,5s,7s)-3,5,7-trimethyladamantan-1-yl)-6,7-dihydropyrazolo[1,5-a]pyrazine-3,5(4H)-dicarboxamide]
IC50 (CK1δ): 0.01 to 10 nM
IC50 (CK1ε): 0.01 to 10 nM

Structure (SMILES): NC(=O)c1c(-c2ccc(Cl)c(Cl)c2)nn2c1CN(C(=O)NC13CCC(c4ccc(F)cc4)(CC1)CC3)CC2 [Compound A89, 2-(3,4-Dichlorophenyl)-N^5-(4-(4-fluorophenyl)bicyclo[2.2.2]octan-1-yl)-6,7-dihydropyrazolo[1,5-a]pyrazine-3,5(4H)-dicarboxamide]
IC50 (CK1δ): 0.01 to 10 nM
IC50 (CK1ε): 0.01 to 10 nM

Structure (SMILES): N#Cc1ccc(C23CCC(NC(=O)N4CCn5nc(-c6ccc(Cl)c(Cl)c6)c(C(N)=O)c5C4)(CC2)CC3)cc1 [Compound A90, N^5-(4-(4-Cyanophenyl)bicyclo[2.2.2]octan-1-yl)-2-(3,4-dichlorophenyl)-6,7-dihydropyrazolo[1,5-a]pyrazine-3,5(4H)-dicarboxamide]
IC50 (CK1δ): 0.01 to 10 nM
IC50 (CK1ε): 0.01 to 10 nM

The remaining lines, values ahead:

IC50 (CK1δ): 0.01 to 10 nM
IC50 (CK1ε): 0.01 to 10 nM
Structure (SMILES): NC(=O)c1c(-c2cccc(Cl)c2)nn2c1CN(C(=O)NC13CCC(CC1)CC3)CC2 [Compound A79, N^5-(Bicyclo[2.2.2]octan-1-yl)-2-(3-chlorophenyl)-6,7-dihydropyrazolo[1,5-a]pyrazine-3,5(4H)-dicarboxamide]

IC50 (CK1δ): 0.01 to 10 nM
IC50 (CK1ε): 0.01 to 10 nM
Structure (SMILES): COC12CCC(NC(=O)N3CCn4nc(-c5cccc(Cl)c5)c(C(N)=O)c4C3)(CC1)CC2 [Compound A80, 2-(3-Chlorophenyl)-N^5-(4-methoxybicyclo[2.2.2]octan-1-yl)-6,7-dihydropyrazolo[1,5-a]pyrazine-3,5(4H)-dicarboxamide]

IC50 (CK1δ): 0.01 to 10 nM
IC50 (CK1ε): 0.01 to 10 nM
Structure (SMILES): COC12CCC(NC(=O)N3CCn4nc(-c5cccc(Cl)c5)c(C(N)=O)c4C3)(CC1)C2 [Compound A82, 2-(3-Chlorophenyl)-N^5-(4-methoxybicyclo[2.2.1]heptan-1-yl)-6,7-dihydropyrazolo[1,5-a]pyrazine-3,5(4H)-dicarboxamide]

IC50 (CK1δ): 0.01 to 10 nM
IC50 (CK1ε): 0.01 to 10 nM
Structure (SMILES): NC(=O)c1c(-c2cccc(Cl)c2)nn2c1CN(C(=O)NC13CCCC(CCC1)C3)CC2 [Compound A84, N^5-((1r,5r)-Bicyclo[3.3.1]nonan-1-yl)-2-(3-chlorophenyl)-6,7-dihydropyrazolo[1,5-a]pyrazine-3,5(4H)-dicarboxamide]

IC50 (CK1δ): 0.01 to 10 nM
IC50 (CK1ε): 0.01 to 10 nM
Structure (SMILES): NC(=O)c1c(-c2cccc(Cl)c2)nn2c1CN(C(=O)NC13C4C5C6C4C1C6C53)CC2 (stereo not shown) [Compound A86, N^5-(Cuban-1-yl)-2-(3-chlorophenyl)-6,7-dihydropyrazolo[1,5-a]pyrazine-3,5(4H)-dicarboxamide]

IC50 (CK1δ): 0.01 to 10 nM
IC50 (CK1ε): 0.01 to 10 nM
Structure (SMILES): N#CC12C3C4C1C1C2C3C41NC(=O)N1CCn2nc(-c3cccc(Cl)c3)c(C(N)=O)c2C1 (stereo not shown) [Compound A87, N^5-(4-Cyanocuban-1-yl)-2-(3-chlorophenyl)-6,7-dihydropyrazolo[1,5-a]pyrazine-3,5(4H)-dicarboxamide]

IC50 (CK1δ): 0.01 to 10 nM
IC50 (CK1ε): 0.01 to 10 nM
Structure (SMILES): NC(=O)c1c(-c2cccc(Cl)c2)nn2c1CN(C(=O)NC13C4C5C1C1C3C4C51F)CC2 (stereo not shown) [Compound A88, N^5-(4-Fluorocuban-1-yl)-2-(3-chlorophenyl)-6,7-dihydropyrazolo[1,5-a]pyrazine-3,5(4H)-dicarboxamide]
